# Measured values published in EP0282456A2, “Mylbemycin derivatives to combat parasites on animals” (CIBA-GEIGY AG, priority 1987, dated 1988).
# What was measured:
# [1] = tested on: Li-Larven von Lucilia sericata; assay: Activity against L1 larvae of Lucilia sericata (mortality in larval culture medium); conditions: 100 ppm active substance in larval medium; about 30 L1 larvae; mortality after 4 days
# Experimental: 1 ml einer wässrigen Suspension der zu prüfenden Aktivsubstanz werden so mit 3 ml eines speziellen Larvenzuchtmediums bei ca. 50° C vermischt, dass ein Homogenisat von wahlweise 250 ppm oder 100 ppm Wirkstoffgehalt entsteht. In jede Reagenzglas-Probe werden ca. 30 Lucilia-Larven (L1) eingesetzt. Nach 4 Taben wird die Mortalitätsrate bestimmt. Verbindungen der Formel I aus den Tabellen, wie z.B. die Verbindungen H4 und H5 erzielten mit 100 ppm eine Wirkung von 100%.
# Dermanyssus gallinae = assay: Miticidal activity against Dermanyssus gallinae; conditions: 100 ppm test solution; about 200 mites; observed for three days
# Experimental: 2 bis 3 ml einer Testlösung (100, 10, 1 und 0,1 ppm Aktivsubstanz) werden in einen nach oben offenen Glasbehälter gegeben und ca. 200 Milben in unterschiedlichen Entwicklungsstadien in diesen Behälter eingesetzt. Der Glasbehälter wird mit einem Wattebausch verschlossen und 10 Minuten gleichmässig, bis zur vollständigen Benetzung der Milben geschüttelt. Danach wird der Behälter umgekehrt hingestellt, bis die überschüssige Testlösung von der Watte aufgesogen ist. Der Behälter wird erneut gekehrt und die behandelten Milben zur Evaluierung der Wirksamkeit der Testsubstanzen drei Tage unter Laborbedingungen beobachtet, wobei die Mortalität als Massstab für Wirksamkeit herangezogen wird. Verbindungen aus den Tabellen, wie z.B. die Verbindungen H4 und H5 zeigen bei 100 ppm eine Wirkung von 1000/0.
# [2] = tested on: Haemonchus contortus und Trichostrongylus colubriformis; assay: Test on sheep infected with nematodes (worm egg count in faeces); assay type: in vivo, Schaf; conditions: single dose 0,2 mg/kg by stomach tube or intraruminal injection, compared with untreated infected controls
# Experimental: Der Wirkstoff wird als Suspension formuliert mit einer Magensonde oder durch Injektion in den Pansen eines Schafes gegeben, das mit Haemonchus contortus und Trychostrongylus colubriformis künstlich infiziert worden ist. Pro Dosis werden 1 bis 3 Tiere verwendet. Jedes Schaf wird nur einmal mit einer einzigen Dosis behandelt, und zwar wahlweise mit 0,5 mg oder 0,2 mg/kg Körpergewicht. Die Evaluierung erfolgt durch Vergleich der Anzahl der vor und nach Behandlung im Kot der Schafe ausgeschiedenen Wurmeier. Gleichzeitig und gleichartig infizierte aber unbehandelte Schafe dienen als Kontrolle.
Substance,Wirkung (Mortalitätsrate) [1],Wirkung (Mortalität) (Dermanyssus gallinae),Nematodenbefall (Reduktion der Wurmeier im Kot) [2]
13-Vinyl-milbemycin A4 [H4],100%,1000/0,keinen Nematodenbefall
13ß-Vinyl-milbemycin A4 [H5],100%,1000/0,keinen Nematodenbefall
